Reference: the supplement of paper PMC10307832

Legend:
Experiment in all cases: relative viability (nuclei count vs DMSO), 5 days (fraction); higher = more cells survive
Wnt-C59 + Decitabine = compound: CC1=NC=CC(=C1)C2=CC=C(C=C2)CC(=O)NC3=CC=C(C=C3)C4=CN=CC=C4 [Wnt-C59] + Nc1ncn([C@H]2C[C@H](O)[C@@H](CO)O2)c(=O)n1 [Decitabine] (partner 2 µM)
Procedure, shortened: (§1)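 Lung cancer cell lines in 1536-well plates were dosed by pin tool the day after seeding, either with one drug alone or with a fixed anchor-drug dose plus five library-drug doses (not always all listed) in √10 steps. After 5 days, cells were fixed and their nuclei stained in one step (final 0.05% Triton X-100, 1% formaldehyde, 1 ug/ml Hoechst), then counted on 4× images. Relative viability is the nuclei count in treated wells divided by that in vehicle wells. Values are medians of duplicate plates.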

Wnt-C59 + Pictilisib = compound: CC1=NC=CC(=C1)C2=CC=C(C=C2)CC(=O)NC3=CC=C(C=C3)C4=CN=CC=C4 [Wnt-C59] + CS(=O)(=O)N1CCN(Cc2cc3nc(-c4cccc5[nH]ncc45)nc(N4CCOCC4)c3s2)CC1 [Pictilisib] (partner 1 µM)
Procedure, shortened: as §1

Lapatinib + OSI-027 = compound: CS(=O)(=O)CCNCc1ccc(-c2ccc3ncnc(Nc4ccc(OCc5cccc(F)c5)c(Cl)c4)c3c2)o1 [Lapatinib] + COc1cccc2cc(-c3nc([C@H]4CC[C@H](C(=O)O)CC4)n4ncnc(N)c34)[nH]c12 [OSI-027] (partner 0.5 µM)
Procedure, shortened: as §1

Lapatinib + Palbociclib = compound: CS(=O)(=O)CCNCc1ccc(-c2ccc3ncnc(Nc4ccc(OCc5cccc(F)c5)c(Cl)c4)c3c2)o1 [Lapatinib] + CC(=O)c1c(C)c2cnc(Nc3ccc(N4CCNCC4)cn3)nc2n(C2CCCC2)c1=O [Palbociclib] (partner 0.5 µM)
Procedure, shortened: as §1

UMC-11 showed a relative viability (Wnt-C59 + Decitabine; first compound 0.001 µM) of 0.572, a relative viability (Wnt-C59 + Decitabine; first compound 0.01 µM) of 0.607 and a relative viability (Wnt-C59 + Decitabine; first compound 0.03162 µM) of 0.559. For the same cell line, the relative viability (Wnt-C59 + Decitabine; first compound 0.1 µM) was 0.72, the relative viability (Wnt-C59 + Pictilisib; first compound 0.001 µM) was 0.81 and the relative viability (Wnt-C59 + Pictilisib; first compound 0.01 µM) was 0.843. The relative viability (Wnt-C59 + Pictilisib; first compound 0.03162 µM) was 0.844, the relative viability (Wnt-C59 + Pictilisib; first compound 0.1 µM) was 0.756 and the relative viability (Lapatinib + OSI-027; first compound 0.02 µM) was 0.461. It also gave a relative viability (Lapatinib + OSI-027; first compound 0.06325 µM) of 0.427, a relative viability (Lapatinib + OSI-027; first compound 0.2 µM) of 0.582 and a relative viability (Lapatinib + OSI-027; first compound 0.6325 µM) of 0.464. For the same cell line, the relative viability (Lapatinib + OSI-027; first compound 2 µM) was 0.465, the relative viability (Lapatinib + Palbociclib; first compound 0.02 µM) was 0.391 and the relative viability (Lapatinib + Palbociclib; first compound 0.06325 µM) was 0.347. It also gave a relative viability (Lapatinib + Palbociclib; first compound 0.2 µM) of 0.301, a relative viability (Lapatinib + Palbociclib; first compound 0.6325 µM) of 0.282 and a relative viability (Lapatinib + Palbociclib; first compound 2 µM) of 0.27.
